Assay results taken from patent publication US20250163104A1, “MACROCYCLIC IMMUNOMODULATORS” (priority 2021, published 2025).
Where a SMILES comes first, the peptide text is derived from it. Bridges are numbered along the chain shown (N, C = ends). [ ]: non-standard residue; d: D form. Bip = N[C@@H](Cc1ccc(-c2ccccc2)cc1)C(=O)O; Cit = NC(=O)NCCC[C@H](N)C(=O)O; Orn = NCCC[C@H](N)C(=O)O; Dab = NCC[C@H](N)C(=O)O

What follows are molecules tested against T1, human PD-1 / PD-L1-Ig binding on Jurkat cell line over-expressing human PD-1 (Jurkat-PD-1) (Homo sapiens, UniProt Q15116) (assay: Jurkat-PD-1 Cell Binding High-Content Screening Assay (CBA)). Conditions: Jurkat HPD1_PDL1 IC50, Jurkat-PD-1 cells, PE-labeled PD-L1-Ig 20 nM final.
T1 construct: expressed in transfected cells; host or cells: Jurkat
T1 sequence (Q15116 25-288): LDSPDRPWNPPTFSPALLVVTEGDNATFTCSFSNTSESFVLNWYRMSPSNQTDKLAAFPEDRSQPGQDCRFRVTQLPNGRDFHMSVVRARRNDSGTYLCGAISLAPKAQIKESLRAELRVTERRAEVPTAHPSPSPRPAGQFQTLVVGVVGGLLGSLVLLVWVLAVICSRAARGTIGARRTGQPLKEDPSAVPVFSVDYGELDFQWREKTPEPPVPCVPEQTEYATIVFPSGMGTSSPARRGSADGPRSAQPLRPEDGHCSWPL
Format: cell-based
In short: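 Compounds were preincubated with Jurkat-hPD-1 cells in DMEM plus 10% fetal calf serum for 2 h at 37° C. Phycoerythrin-labeled PD-L1-Ig (20 nM final) was then added for 1 hour. Cells were fixed in 4% paraformaldehyde with Hoechst 33342, and bound fluorescence was quantified by high-content imaging.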

Row | Compound | IC50 [nM]
1 | CC(C)C[C@@H]1NC(=O)[C@H](Cc2c[nH]c3ccccc23)NC(=O)[C@H](CC(=O)O)NC(=O)[C@H](Cc2ccc(O)cc2)NC(=O)[C@H](Cc2ccccc2)NC(=O)CSC[C@@H](C(=O)NCC(N)=O)NC(=O)[C@H]([C@@H](C)O)NC(=O)[C@H](C(C)C)NC(=O)[C@H](CC(C)C)NC(=O)[C@H](CC(N)=O)NC(=O)[C@@H](C)NC(=O)[C@H](CCCN)NC(=O)[C@H](C(C)C)NC(=O)[C@H](Cc2ccc(-c3ccccc3)cc2)NC1=O [Compound 1107] ({CH2CO}-FYDWL[Bip]V[Orn][dA]NLVTCG-NH2; thioether N-14) | 310

Same assay, conditions: Jurkat-PD-1 cells, PE-labeled PD-L1-Ig 20 nM final; read-out: Jurkat HPD1_PDL1 IC50

Row | Compound | IC50 [nM]
2 | CC(C)C[C@@H]1NC(=O)[C@H](Cc2c[nH]c3ccccc23)NC(=O)[C@H](CC(=O)O)NC(=O)[C@H](Cc2ccc(O)cc2)NC(=O)[C@H](Cc2ccccc2)NC(=O)CSC[C@@H](C(=O)N[C@@H](C)C(N)=O)NC(=O)[C@H]([C@@H](C)O)NC(=O)[C@H](C(C)C)NC(=O)[C@H](CC(C)C)NC(=O)[C@H](CC(N)=O)NC(=O)[C@@H](C)NC(=O)[C@H](CCN)NC(=O)[C@H](C(C)C)NC(=O)[C@H](Cc2ccc(-c3ccccc3)cc2)NC1=O [Compound 1101] ({CH2CO}-FYDWL[Bip]V[Dab][dA]NLVTCA-NH2; thioether N-14) | 127
3 | CC(C)C[C@@H]1NC(=O)[C@H](Cc2c[nH]c3ccccc23)NC(=O)[C@H](CC(=O)O)NC(=O)[C@H](Cc2ccc(O)cc2)NC(=O)[C@H](Cc2ccccc2)NC(=O)CSC[C@@H](C(=O)NCC(N)=O)NC(=O)[C@H](CO)NC(=O)[C@H](C(C)C)NC(=O)[C@H](CC(C)C)NC(=O)[C@H](CC(N)=O)NC(=O)[C@@H](C)NC(=O)[C@H](CCN)NC(=O)[C@H](C(C)C)NC(=O)[C@H](Cc2ccc(-c3ccccc3)cc2)NC1=O [Compound 1102] ({CH2CO}-FYDWL[Bip]V[Dab][dA]NLVSCG-NH2; thioether N-14) | 71.1
4 | CC(C)C[C@@H]1NC(=O)[C@H](Cc2c[nH]c3ccccc23)NC(=O)[C@H](CC(=O)O)NC(=O)[C@H](Cc2ccc(O)cc2)NC(=O)[C@H](Cc2ccccc2)NC(=O)CSC[C@@H](C(=O)NCC(N)=O)NC(=O)[C@H]([C@@H](C)O)NC(=O)[C@H](C(C)C)NC(=O)[C@H](CC(C)C)NC(=O)[C@H](CCN)NC(=O)[C@@H](C)NC(=O)[C@H](CCN)NC(=O)[C@H](C(C)C)NC(=O)[C@H](Cc2ccc(-c3ccccc3)cc2)NC1=O [Compound 1103] ({CH2CO}-FYDWL[Bip]V[Dab][dA][Dab]LVTCG-NH2; thioether N-14) | 112
5 | CC(C)C[C@@H]1NC(=O)[C@H](Cc2c[nH]c3ccccc23)NC(=O)[C@H](CC(=O)O)NC(=O)[C@H](Cc2ccc(O)cc2)NC(=O)[C@H](Cc2ccccc2)NC(=O)CSC[C@@H](C(=O)N[C@@H](C)C(N)=O)NC(=O)[C@H](CO)NC(=O)[C@H](C(C)C)NC(=O)[C@H](CC(C)C)NC(=O)[C@H](CCN)NC(=O)[C@@H](C)NC(=O)[C@H](CCN)NC(=O)[C@H](C(C)C)NC(=O)[C@H](Cc2ccc(-c3ccccc3)cc2)NC1=O [Compound 1104] ({CH2CO}-FYDWL[Bip]V[Dab][dA][Dab]LVSCA-NH2; thioether N-14) | 43.6
6 | CC(C)C[C@@H]1NC(=O)[C@H](Cc2c[nH]c3ccccc23)NC(=O)[C@H](CC(=O)O)NC(=O)[C@H](Cc2ccc(O)cc2)NC(=O)[C@H](Cc2ccccc2)NC(=O)CSC[C@@H](C(=O)N[C@@H](C)C(N)=O)NC(=O)[C@H]([C@@H](C)O)NC(=O)[C@H](C(C)C)NC(=O)[C@H](CC(C)C)NC(=O)[C@H](CCN)NC(=O)[C@@H](C)NC(=O)[C@H](CCN)NC(=O)[C@H](C(C)C)NC(=O)[C@H](Cc2ccc(-c3ccccc3)cc2)NC1=O [Compound 1105] ({CH2CO}-FYDWL[Bip]V[Dab][dA][Dab]LVTCA-NH2; thioether N-14) | 102
7 | CC(C)C[C@@H]1NC(=O)[C@H](Cc2c[nH]c3ccccc23)NC(=O)[C@H](CC(=O)O)NC(=O)[C@H](Cc2ccc(O)cc2)NC(=O)[C@H](Cc2ccccc2)NC(=O)CSC[C@@H](C(=O)NCC(N)=O)NC(=O)[C@H](CO)NC(=O)[C@H](C(C)C)NC(=O)[C@H](CC(C)C)NC(=O)[C@H](CCN)NC(=O)[C@@H](C)NC(=O)[C@H](CCN)NC(=O)[C@H](C(C)C)NC(=O)[C@H](Cc2ccc(-c3ccccc3)cc2)NC1=O [Compound 1106] ({CH2CO}-FYDWL[Bip]V[Dab][dA][Dab]LVSCG-NH2; thioether N-14) | 66.7
8 | CC(C)C[C@@H]1NC(=O)[C@H](Cc2c[nH]c3ccccc23)NC(=O)[C@H](CC(=O)O)NC(=O)[C@H](Cc2ccc(O)cc2)NC(=O)[C@H](Cc2ccccc2)NC(=O)CSC[C@@H](C(=O)N[C@@H](C)C(N)=O)NC(=O)[C@H](CO)NC(=O)[C@H](C(C)C)NC(=O)[C@H](CC(C)C)NC(=O)[C@H](CC(N)=O)NC(=O)[C@@H](C)NC(=O)[C@H](CCCN)NC(=O)[C@H](C(C)C)NC(=O)[C@H](Cc2ccc(-c3ccccc3)cc2)NC1=O [Compound 1108] ({CH2CO}-FYDWL[Bip]V[Orn][dA]NLVSCA-NH2; thioether N-14) | 42.5
9 | CC(C)C[C@@H]1NC(=O)[C@H](CCN)NC(=O)[C@@H](CC(C)C)NC(=O)[C@H](CCCN)NC(=O)[C@H](CCCNC(N)=O)NC(=O)[C@H](Cc2ccc(-c3ccccc3)cc2)NC(=O)[C@H](C(C)C)NC(=O)[C@H](Cc2c[nH]c3ccccc23)NC(=O)[C@H](CC(=O)O)NC(=O)[C@H](Cc2ccc(O)cc2)NC(=O)[C@H](CC(N)=O)NC(=O)CSC[C@@H](C(=O)N[C@@H](C)C(N)=O)NC(=O)[C@H](CO)NC(=O)[C@H](C(C)C)NC1=O [Compound 1109] ({CH2CO}-NYDWV[Bip][Cit][Orn][dL][Dab]LVSCA-NH2; thioether N-14) | 36
10 | CC(C)C[C@@H]1NC(=O)[C@H](CCN)NC(=O)[C@@H](CC(C)C)NC(=O)[C@H](CCCCN)NC(=O)[C@H](CCCNC(N)=O)NC(=O)[C@H](Cc2ccc(-c3ccccc3)cc2)NC(=O)[C@H](C(C)C)NC(=O)[C@H](Cc2c[nH]c3ccccc23)NC(=O)[C@H](CC(=O)O)NC(=O)[C@H](Cc2ccc(O)cc2)NC(=O)[C@H](CC(N)=O)NC(=O)CSC[C@@H](C(=O)N[C@@H](C)C(N)=O)NC(=O)[C@H](CO)NC(=O)[C@H](C(C)C)NC1=O [Compound 1110] ({CH2CO}-NYDWV[Bip][Cit]K[dL][Dab]LVSCA-NH2; thioether N-14) | 35.6
11 | CC(C)C[C@@H]1NC(=O)[C@H](CCN)NC(=O)[C@@H](CC(C)C)NC(=O)[C@H](CCN)NC(=O)[C@H](CCCNC(N)=O)NC(=O)[C@H](Cc2ccc(-c3ccccc3)cc2)NC(=O)[C@H](C(C)C)NC(=O)[C@H](Cc2c[nH]c3ccccc23)NC(=O)[C@H](CC(=O)O)NC(=O)[C@H](Cc2ccc(O)cc2)NC(=O)[C@H](CC(N)=O)NC(=O)CSC[C@@H](C(=O)N[C@@H](C)C(N)=O)NC(=O)[C@H](CO)NC(=O)[C@H](C(C)C)NC1=O [Compound 1111] ({CH2CO}-NYDWV[Bip][Cit][Dab][dL][Dab]LVSCA-NH2; thioether N-14) | 37.9
12 | CC(C)C[C@@H]1NC(=O)[C@H](CCN)NC(=O)[C@@H](CC(C)C)NC(=O)[C@H](CCCN)NC(=O)[C@H](CCCNC(N)=O)NC(=O)[C@H](Cc2ccc(-c3ccccc3)cc2)NC(=O)[C@H](C(C)C)NC(=O)[C@H](Cc2c[nH]c3ccccc23)NC(=O)[C@H](CC(=O)O)NC(=O)[C@H](Cc2ccc(O)cc2)NC(=O)[C@H](CC(N)=O)NC(=O)CSC[C@@H](C(=O)NCC(N)=O)NC(=O)[C@H](CO)NC(=O)[C@H](C(C)C)NC1=O [Compound 1112] ({CH2CO}-NYDWV[Bip][Cit][Orn][dL][Dab]LVSCG-NH2; thioether N-14) | 17.1
13 | CC(C)C[C@@H]1NC(=O)[C@H](CCN)NC(=O)[C@@H](CC(C)C)NC(=O)[C@H](CCCCN)NC(=O)[C@H](CCCNC(N)=O)NC(=O)[C@H](Cc2ccc(-c3ccccc3)cc2)NC(=O)[C@H](C(C)C)NC(=O)[C@H](Cc2c[nH]c3ccccc23)NC(=O)[C@H](CC(=O)O)NC(=O)[C@H](Cc2ccc(O)cc2)NC(=O)[C@H](CC(N)=O)NC(=O)CSC[C@@H](C(=O)NCC(N)=O)NC(=O)[C@H](CO)NC(=O)[C@H](C(C)C)NC1=O [Compound 1113] ({CH2CO}-NYDWV[Bip][Cit]K[dL][Dab]LVSCG-NH2; thioether N-14) | 15.6
14 | CC(C)C[C@@H]1NC(=O)[C@H](CCN)NC(=O)[C@@H](CC(C)C)NC(=O)[C@H](CCN)NC(=O)[C@H](CCCNC(N)=O)NC(=O)[C@H](Cc2ccc(-c3ccccc3)cc2)NC(=O)[C@H](C(C)C)NC(=O)[C@H](Cc2c[nH]c3ccccc23)NC(=O)[C@H](CC(=O)O)NC(=O)[C@H](Cc2ccc(O)cc2)NC(=O)[C@H](CC(N)=O)NC(=O)CSC[C@@H](C(=O)NCC(N)=O)NC(=O)[C@H](CO)NC(=O)[C@H](C(C)C)NC1=O [Compound 1114] ({CH2CO}-NYDWV[Bip][Cit][Dab][dL][Dab]LVSCG-NH2; thioether N-14) | 31.6
15 | CC(C)C[C@@H]1NC(=O)[C@H](CCN)NC(=O)[C@@H](CC(C)C)NC(=O)[C@H](CCCN)NC(=O)[C@H](CCCNC(N)=O)NC(=O)[C@H](Cc2ccc(-c3ccccc3)cc2)NC(=O)[C@H](C(C)C)NC(=O)[C@H](Cc2c[nH]c3ccccc23)NC(=O)[C@H](CC(=O)O)NC(=O)[C@H](Cc2ccc(O)cc2)NC(=O)[C@H](CC(N)=O)NC(=O)CSC[C@@H](C(=O)NCC(N)=O)NC(=O)[C@H]([C@@H](C)O)NC(=O)[C@H](C(C)C)NC1=O [Compound 1115] ({CH2CO}-NYDWV[Bip][Cit][Orn][dL][Dab]LVTCG-NH2; thioether N-14) | 79.6
16 | CC(C)C[C@@H]1NC(=O)[C@H](CCN)NC(=O)[C@@H](CC(C)C)NC(=O)[C@H](CCCCN)NC(=O)[C@H](CCCNC(N)=O)NC(=O)[C@H](Cc2ccc(-c3ccccc3)cc2)NC(=O)[C@H](C(C)C)NC(=O)[C@H](Cc2c[nH]c3ccccc23)NC(=O)[C@H](CC(=O)O)NC(=O)[C@H](Cc2ccc(O)cc2)NC(=O)[C@H](CC(N)=O)NC(=O)CSC[C@@H](C(=O)NCC(N)=O)NC(=O)[C@H]([C@@H](C)O)NC(=O)[C@H](C(C)C)NC1=O [Compound 1116] ({CH2CO}-NYDWV[Bip][Cit]K[dL][Dab]LVTCG-NH2; thioether N-14) | 38.5
